Test [1] has as its system HUVEC. The experiment in a line: HUVEC growth inhibition assay (NCI). Type of test: cell-based, human. To be noted: Homo sapiens, 72 h, crystal violet. The method, then: Angiogenesis assays were provided by the NCI, details of the assay protocols are given below. In each assays TNP-470 and paclitaxel (Taxol®) were used as reference compounds. HUVEC (1.5×10^3) were plated in a 96-well plate in 100 μL of EBM-2 (Clonetic #CC3162). […] On day 0, one plate was stained with 0.5% crystal violet in 20% methanol for 10 minutes, rinsed with water, and air-dried. The remaining plates were incubated for 72 h at 37° C. After 72 h, plates were stained with 0.5% crystal violet in 20% methanol, rinsed with water and air-dried. The stain was eluted with 1:1 solution of ethanol:0.1 M sodium citrate (including day 0 plate), and absorbance was measured at 540 nm with an ELISA reader (Dynatech Laboratories). Day 0 absorbance was subtracted from the 72 h plates and data was plotted as percentage of control proliferation (vehicle treated cells).

Test [2] deals with HUVEC. As to the kind of experiment: HUVEC cell migration (chemotaxis) assay, Boyden chamber (NCI). Type of test: cell-based, human. The settings on record: Homo sapiens, 5 h. The procedure:
Angiogenesis assays were provided by the NCI, details of the assay protocols are given below. In each assays TNP-470 and paclitaxel (Taxol®) were used as reference compounds. Migration was assessed using the 48-well Boyden chamber and 8 μm pore size collagen-coated (10 μg/mL rat tail collagen; Collaborative Laboratories) polycarbonate filters (Osmonics, Inc.). The bottom chamber wells received 27-29 μL of DMEM medium alone (baseline) or medium containing chemo-attractant (bFGF, VEGF or Swiss 3T3 cell conditioned medium). The top chambers received 45 μL of HUVEC cell suspension (1×10^6 cells/mL) prepared in DMEM+1% BSA with or without test compound. After 5 h incubation at 37° C., the membrane was rinsed in PBS, fixed and stained in Diff-Quick solutions. The filter was placed on a glass slide with the migrated cells facing down and cells on top were removed using a Kimwipe. The testing was performed in 4-6 replicates and five fields were counted from each well. Negative, unstimulated, control values were subtracted from stimulated control and drug treated values and data was plotted as mean migrated cell±S.D. The IC50 was calculated from the plotted data.

The test system of test [3] is HUVEC. The experiment in a line: HUVEC cord formation assay on matrigel (NCI). The class given is cell-based, human. To be noted: Homo sapiens, 24 h. The procedure:
Angiogenesis assays were provided by the NCI, details of the assay protocols are given below. In each assays TNP-470 and paclitaxel (Taxol®) were used as reference compounds. Matrigel (60 μL of 10 mg/mL; Collaborative Lab #35423) was placed in each well of an ice-cold 96-well plate. The plate was allowed to sit at room temperature for 15 minutes then it was incubated at 37° C. for 30 minutes to permit the matrigel to polymerize. In the mean time, HUVEC were prepared in EGM-2 (Clonetic #CC3162) at a concentration of 2×10^5 cells/mL. […] The cells (500 μL) and the drug at 2 times concentration (500 μL) were mixed and 200 μL of this suspension was placed in duplicate on the polymerized matrigel. After 24 h incubation, triplicate pictures were taken for each concentration using a Bioquant Image Analysis system. Drug effect (IC50) is assessed compared to untreated controls by measuring the length of cords formed and number of junctions.

Test [4] relates to endothelial cell proliferation and endothelial capillary formation. The settings on record: cited from earlier work.

The term IC50 denotes the midpoint of a concentration-inhibition curve.

Consider `CC(=O)O[C@H]1C(=O)[C@@]2(C)[C@H]([C@H](OC(=O)c3ccccc3)[C@]3(O)C[C@H](OC(=O)[C@H](O)[C@@H](NC(=O)c4ccccc4)c4ccccc4)C(C)=C1C3(C)C)[C@]1(OC(C)=O)CO[C@@H]1C[C@@H]2O` [Taxol, paclitaxel], for which the IC50 in the test with HUVEC [1] was determined as 1.65 ± 0.12 nM; in the test on HUVEC [2], 100 nM; in the test on HUVEC [3] it was 50 nM.
As for `CC1CC(C)CC(C)C(O)C(C#N)=CC=CCC(C2CCCC2C(=O)OCCc2ccccn2)OC(=O)CC(O)C(C)C1` (stereo not shown) [borrelidin-(2-pyridyl)-ethyl ester], in test [4], the “selectivity index, capillary formation inhibitory activity versus cell proliferation with respect to borrelidin” value is recorded as 7.5 fold.
Turning to borrelidin-amide, the “selectivity index, capillary formation inhibitory activity versus cell proliferation with respect to borrelidin” value in test [4] is recorded as 37 fold.
For the molecule `C[C@@H]1C[C@H](C)C[C@H](C)[C@@H](O)CC(=O)O[C@H]([C@@H]2CCC[C@H]2C(=O)NCCN2CCOCC2)C/C=C/C=C(/C#N)[C@H](O)[C@@H](C)C1` [borrelidin-morpholinoethyl amide], the “selectivity index, capillary formation inhibitory activity versus cell proliferation with respect to borrelidin” value in test [4] is listed as 6 fold.
For `C[C@@H]1C[C@H](C)C[C@H](C)[C@@H](O)CC(=O)O[C@H]([C@@H]2CCC[C@H]2C(=O)OCCN2CCOCC2)C/C=C/C=C(/C#N)[C@H](O)[C@@H](C)C1` [borrelidin-morpholinoethyl ester], the “selectivity index, capillary formation inhibitory activity versus cell proliferation with respect to borrelidin” value in test [4] was 60 fold.
Turning to `CO[C@@H]1[C@H](OC(=O)NC(=O)CCl)CC[C@]2(CO2)[C@H]1[C@@]1(C)O[C@@H]1CC=C(C)C` [TNP470], the IC50 worked out at 3.16 ± 0.82 nM in the test on HUVEC [1], 500 nM with HUVEC [2] and 1000 nM with HUVEC [3].
